The subject of series [1] is Escherichia coli. Nature of the series: Antibacterial activity in vitro (MIC). Type of series: cell-based.
The subject of series [2] is Klebsiella aerogenes. The series is described as follows: Antibacterial activity in vitro (MIC). Type of series: cell-based.
In series [3] the test system is Staphylococcus aureus. The series is described as follows: Antibacterial activity in vitro (MIC). The series is classed as cell-based.
Series [4] is described as follows: Tissue stability in mouse kidney homogenate (HPLC). The series is classed as in vitro ADME. Conditions: 37°C, stability relative to MM13902 taken as standard (1.0), values >1.0 = fold increase in stability. The method, then: (§1) A preparation of 2% mouse kidney homogenate was mixed with equal volumes of a 200 µg/ml solution of the antibiotic to be tested. The stability of the antibiotic at 37 °C was studied by removal of aliquots and subjecting them to a high pressure liquid chromatographic analysis. The values are given in figures relative to that obtained for MM13902 of U.K. Patent No. 1489235. The values are given in figures relative to that obtained for MM13902 which is taken as standard (1.0). Values greater than 1.0 reflect the fold increase in stability relative to MM13902.

The nature of series [5]: Tissue stability in human kidney (HPLC). Type of series: in vitro ADME. Conditions: stability relative to MM13902 taken as standard (1.0), values >1.0 = fold increase in stability. The method, then: as §1
For series [6], the system named is E. coli E96R+. Nature of the series: Antibacterial activity in vivo against experimental mouse infection. The settings on record: Escherichia coli, read-out: CD50. The protocol:
(§2) CD50 mg/kg (total dose) - Compounds dosed at 1 and 5 hours past infection.

Series [7] concerns Staph. aureus Smith. Described as above. The settings on record: Staphylococcus aureus; mouse infection with Staph. aureus Smith; total dose; dosed at 1 and 5 hours past infection; read-out: CD50 (the source's name). The protocol: as §2
Where [8] appears, read: Escherichia coli Ba78R+, read-out: MIC.
The mark [9] stands for this setting: Escherichia coli JT4R+, read-out: MIC.
Where [10] appears, read: Klebsiella aerogenes VA2R+ (printed Va2R+ for Compound B).

Each structure is given as a SMILES string. Values after ≈ are worked out from the molar mass of the structure shown. Like-named read-outs stand apart in the source and are kept apart here.

Consider `C[C@@H](O)[C@H]1C(=O)N2C(C(=O)O)=C(S/C=C\C(=O)OCCN)C[C@H]12` [Compound B, (5R.6S)-3-[(Z)-2-(2-aminoethyloxycarbonyl)ethenylthio]-6-[(R)-1-hydroxyethyl]-7-oxo-1-azabicyclo[3.2.0]hept-2-ene-2-carboxylic acid], for which the MIC in series [1] (setting [8]) worked out at 0.1 µg/mL (≈ 0.292 µM); in series [1] (setting [9]) it was 0.1 µg/mL (≈ 0.292 µM); in series [1] (Escherichia coli JT56R+, read-out: MIC), 0.2 µg/mL (≈ 0.584 µM); in series [1] (Escherichia coli JT177R, read-out: MIC) it was 0.2 µg/mL (≈ 0.584 µM); in series [2] (Klebsiella aerogenes Ba95R+), 0.4 µg/mL (≈ 1.17 µM); in series [2] (Klebsiella aerogenes Du185R), 0.2 µg/mL (≈ 0.584 µM). For the same molecule, the MIC was determined as 0.2 µg/mL (≈ 0.584 µM) in series [2] (Klebsiella aerogenes Du192R); 0.4 µg/mL (≈ 1.17 µM) in series [2] (setting [10]); 0.4 µg/mL (≈ 1.17 µM) in series [3] (Staphylococcus aureus MANSTK 33269); 0.1 µg/mL (≈ 0.292 µM) in series [3] (Staphylococcus aureus T2p-); 0.1 µg/mL (≈ 0.292 µM) in series [3] (Staphylococcus aureus T97p+); 0.02 µg/mL (≈ 0.0584 µM) in series [3] (Staphylococcus aureus T100p-). Also, the MIC amounted to 0.05 µg/mL (≈ 0.146 µM) in series [3] (Staphylococcus aureus T118p+) and 0.02 µg/mL (≈ 0.0584 µM) in series [3] (Staphylococcus aureus T120p-). In addition, the “Tissue Stability Values” in series [4] is 2.4; in series [5], 2.2. Further, the ED50 in series [6] is 13 mg/kg; in series [7], under 0.4 mg/kg.

Take `C[C@H](O)[C@H]1C(=O)N2C(C(=O)O)=C(S/C=C\C(=O)OCCN)C[C@H]12` [Compound C]: the MIC was 3.1 µg/mL (≈ 9.05 µM) in series [1] (Escherichia coli JT39, read-out: MIC); 3.1 µg/mL (≈ 9.05 µM) in series [2] (Klebsiella aerogenes A); 6.2 µg/mL (≈ 18.1 µM) in series [3] (Staphylococcus aureus 1517); 0.4 µg/mL (≈ 1.17 µM) in series [3] (Staphylococcus aureus Russell).

As to `CC(=O)N/C=C/SC1=C(C(=O)O)N2C(=O)[C@@H]([C@H](C)OS(=O)(=O)O)[C@H]2C1` [MM13902], the “Tissue Stability Values” in series [4] and in series [5] was 1.0 each time.

As to `C[C@H](O)[C@@H]1C(=O)N2C(C(=O)O)=C(S/C=C\C(=O)OCCN)C[C@H]12` [Compound A], the MIC was 0.8 µg/mL (≈ 2.34 µM) in series [1]; 1.6 µg/mL (≈ 4.67 µM) in series [1] (setting [8]); 6.2 µg/mL (≈ 18.1 µM) in series [1] (setting [9]); 6.2 µg/mL (≈ 18.1 µM) in series [1] (Escherichia coli JT20R+, read-out: MIC); 3.1 µg/mL (≈ 9.05 µM) in series [2] (Klebsiella aerogenes 185R+); 6.2 µg/mL (≈ 18.1 µM) in series [2] (Klebsiella aerogenes 192R+). Moreover, the MIC in series [2] (Klebsiella aerogenes Ba95R+) turned out to be 6.2 µg/mL (≈ 18.1 µM); in series [2] (setting [10]) it was 25 µg/mL (≈ 73 µM); in series [3] (ATCC25923, Staphylococcus aureus ATCC 25923) it was 0.1 µg/mL (≈ 0.292 µM); in series [3] (Staphylococcus aureus 68/8484), 0.2 µg/mL (≈ 0.584 µM); in series [3] (Staphylococcus aureus 150+) it was 0.2 µg/mL (≈ 0.584 µM); in series [3] (Staphylococcus aureus MB9+), 0.2 µg/mL (≈ 0.584 µM). Also, the MIC in series [3] (Staphylococcus aureus N36MR) stood at 0.4 µg/mL (≈ 1.17 µM); in series [3] (Staphylococcus aureus N71MR), 0.8 µg/mL (≈ 2.34 µM); in series [3] (Staphylococcus aureus Smith), 0.2 µg/mL (≈ 0.584 µM); in series [3] (Staphylococcus aureus T71+), 0.1 µg/mL (≈ 0.292 µM); in series [3] (Staphylococcus aureus T100), 0.2 µg/mL (≈ 0.584 µM). Besides, the “Tissue Stability Values” in series [4] came out at 1.3; in series [5] it was 1.2. Besides, the ED50 amounted to 66 mg/kg in series [6] and 4.5 mg/kg in series [7].

The term MIC denotes the smallest concentration in the dilution series that meets the test's criterion for growth inhibition.

Source of the values: EP0079167A1, “A carbapenem compound, preparation and use” (BEECHAM GROUP PLC, priority 1981, dated 1983).
